The values that follow come from US12012399B2, “Microbiocidal quinoline dihydro-(thiazine)oxazine derivatives” (priority 2018, dated 2024).

The subject of data set [1] is Mycosphaerella graminicola (Septoria tritici). Nature of the data set: Mycosphaerella graminicola (Septoria tritici) on wheat / preventative. The following applies: Zymoseptoria tritici, wheat plants sprayed, inoculated one day after application, assessed 16-19 days after application vs untreated control. It counts as in vivo.
For data set [2], the system named is Botryotinia fuckeliana (Botrytis cinerea). Nature of the data set: Botryotinia fuckeliana (Botrytis cinerea) / liquid culture (gray mould). Type of data set: cell-based. The conditions noted are these: 72 h, compared to untreated control, growth inhibition determined photometrically 3-4 days after application.
Data set [3] concerns Monographella nivalis (Microdochium nivale). Nature of the data set: Monographella nivalis (Microdochium nivale) / liquid culture (foot rot cereals). It counts as cell-based. The following applies: compared to untreated control, growth inhibition determined photometrically 4-5 days after application.
The subject of data set [4] is Mycosphaerella graminicola (Septoria tritici). Nature of the data set: Mycosphaerella graminicola (Septoria tritici) / liquid culture (Septoria blotch). Type of data set: cell-based. The following applies: Zymoseptoria tritici, compared to untreated control, growth inhibition determined photometrically 4-5 days after application.
The subject of data set [5] is Magnaporthe grisea (Pyricularia oryzae). Nature of the data set: microbe, parasite or virus in culture. The following applies: read-out: control of Magnaporthe grisea. It counts as cell-based.
The test system of another data set is Fusarium culmorum. Nature of the data set: microbe, parasite or virus in culture. Type of data set: cell-based. The conditions noted are these: read-out: control of Fusarium culmorum.
The next data set relates to Sclerotinia sclerotiorum. Nature of the data set: microbe, parasite or virus in culture. It counts as cell-based. The conditions noted are these: read-out: control of Sclerotinia sclerotiorum.

The melting point is the temperature of the solid-liquid transition. Usually pest or weed control stands for how far the test organism was held down. The low end stands for weak suppression, the high end for strong suppression. Regarding `Cc1nc2c(F)c(F)ccc2cc1C1=NC(Cc2ccc(F)cc2)CC(C)(C)O1` (stereo not drawn) [E-24, 2-(7,8-difluoro-2-methyl-3-quinolyl)-4-[(4-fluorophenyl)methyl]-6,6-dimethyl-4,5-dihydro-1,3-oxazine], the melting point was in the range of 128 to 132 °C. Also, in data set [1], the pest or weed control at 60 ppm was at least 80%. The compound also showed an inhibition of growth at 20 ppm in data set [2] of at least 80%. Also, the inhibition of growth at 20 ppm in data set [3] was at least 80%. The inhibition of growth at 20 ppm in data set [4] is at least 70%.

As for `CC1(C)CC(Cc2cccc(F)c2)N=C(c2cnc3c(F)c(F)ccc3c2)O1` (stereo not drawn) [E-19, 2-(7,8-difluoro-3-quinolyl)-4-[(3-fluorophenyl)methyl]-6,6-dimethyl-4,5-dihydro-1,3-oxazine], the melting point fell in the range of 95 to 98 °C. Further, in data set [5], the inhibition of growth at 20 ppm is at least 80%. The pest or weed control at 60 ppm in data set [1] was at least 80%. This compound returned an inhibition of growth at 20 ppm in data set [2] of at least 80%. In the data set on Fusarium culmorum, the inhibition of growth at 20 ppm was at least 80%. In data set [3], the inhibition of growth at 20 ppm was at least 80%. The inhibition of growth at 20 ppm with Sclerotinia sclerotiorum was at least 80%. For the same compound, the inhibition of growth at 20 ppm in data set [4] was at least 70%.

On to `Cc1nc2c(F)c(F)ccc2cc1C1=NC(Cc2ccccc2)CC(C)(C)O1` (stereo not drawn) [E-22, 4-benzyl-2-(7,8-difluoro-2-methyl-3-quinolyl)-6,6-dimethyl-4,5-dihydro-1,3-oxazine], for which, in data set [1], the pest or weed control at 60 ppm is at least 80%. Besides, the inhibition of growth at 20 ppm in data set [2] was at least 80%; in the data set with Fusarium culmorum, at least 80%; in data set [3], at least 80%; in the data set on Sclerotinia sclerotiorum, at least 80%; in data set [4], at least 70%.

As to `CC1(C)CC(Cc2ccccc2F)N=C(c2cnc3c(F)c(F)ccc3c2)O1` (stereo not drawn) [E-20, 2-(7,8-difluoro-3-quinolyl)-4-[(2-fluorophenyl)methyl]-6,6-dimethyl-4,5-dihydro-1,3-oxazine], the inhibition of growth at 20 ppm (in data set [5]; in data set [2]; with Fusarium culmorum; in data set [3]) was at least 80% throughout. In data set [1], this compound registered a pest or weed control at 60 ppm of at least 80%.

Regarding `CC1(C)CC(Cc2ccccc2)N=C(c2cnc3c(F)c(F)ccc3c2)O1` (stereo not drawn) [F-5], the inhibition of growth at 20 ppm in data set [5] was at least 80%; in data set [2], at least 80%; in the data set on Fusarium culmorum, at least 80%; in data set [3] it was at least 80%; in the data set on Sclerotinia sclerotiorum, at least 80%; in data set [4] it was at least 70%. The compound further returned a pest or weed control at 60 ppm in data set [1] of at least 80%.

In the case of `CC1(C)CC(Cc2ccc(F)cc2)N=C(c2cnc3c(F)c(F)ccc3c2)O1` (stereo not drawn) [F-7], the melting point lay in the range of 117 to 119 °C. In data set [1], this compound came in with a pest or weed control at 60 ppm of at least 80%. Further, the inhibition of growth at 20 ppm with Fusarium culmorum was at least 80%.

With `Fc1ccc2cc(C3=NC(Cc4ccccc4)CC4(CCCC4)O3)cnc2c1F` (stereo not drawn) [E-21, 9-benzyl-7-(7,8-difluoro-3-quinolyl)-6-oxa-8-azaspiro[4.5]dec-7-ene], the inhibition of growth at 20 ppm is at least 80% in data set [5], at least 80% in data set [2], at least 80% in data set [3] and at least 70% in data set [4]. Besides, in data set [1], the pest or weed control at 60 ppm was at least 80%.
